Values after ≈ are worked out from the molar mass of the structure shown.
Experiments:
[1] = test system: COLO 205; assay: Antiproliferative activity against human COLO 205 cells incubated for 72 hrs by MTS assay; type: functional, cell-based; conditions: COLO 205, 72 h
[2] = target: T1, Prostaglandin G/H synthase 1 (Bos taurus, UniProt O62664); assay: Inhibition of bovine COX-1 using arachidonic acid as substrate preincubated for 10 mins followed by substrate addition and measured after 5 mins by ELISA method
T1 sequence (O62664 whole entry): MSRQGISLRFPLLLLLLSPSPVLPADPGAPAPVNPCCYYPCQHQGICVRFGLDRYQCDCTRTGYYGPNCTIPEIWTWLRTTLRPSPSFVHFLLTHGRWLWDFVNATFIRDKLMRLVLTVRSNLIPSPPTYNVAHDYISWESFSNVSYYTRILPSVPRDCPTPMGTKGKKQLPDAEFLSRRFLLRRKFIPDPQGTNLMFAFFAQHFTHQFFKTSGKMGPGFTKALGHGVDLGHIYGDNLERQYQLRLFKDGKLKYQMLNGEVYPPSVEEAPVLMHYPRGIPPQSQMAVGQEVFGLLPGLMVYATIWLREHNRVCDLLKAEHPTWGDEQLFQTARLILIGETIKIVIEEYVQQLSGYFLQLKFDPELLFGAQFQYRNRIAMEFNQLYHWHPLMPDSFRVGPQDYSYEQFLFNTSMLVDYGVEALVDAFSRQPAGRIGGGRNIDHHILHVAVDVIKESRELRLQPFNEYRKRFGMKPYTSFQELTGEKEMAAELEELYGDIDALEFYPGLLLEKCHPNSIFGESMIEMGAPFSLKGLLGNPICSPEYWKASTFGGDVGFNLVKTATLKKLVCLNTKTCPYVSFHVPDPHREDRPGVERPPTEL

[3] = Inhibition of human recombinant COX-1 using arachidonic acid as substrate preincubated for 10 mins followed by substrate addition and measured after 5 mins by ELISA method
[4] = test system: Hep 3B2; assay: Antiproliferative activity against human Hep3B cells by MTS assay; type: functional, cell-based
[5] = test system: HeLa; assay: Antiproliferative activity against human HeLa cells by MTS assay; type: functional, cell-based
[6] = test system: Huh-7; assay: Antiproliferative activity against human Huh-7 cells incubated for 72 hrs by SRB method; type: functional, cell-based; conditions: Huh-7, 72 h
[7] = test system: HCT-116; assay: Antiproliferative activity against human HCT-116 cells incubated for 72 hrs by SRB method; type: functional, cell-based; conditions: HCT-116, 72 h
[8] = test system: Hep 3B2; assay: Antiproliferative activity against human Hep3B cells; type: functional, cell-based
[9] = test system: MCF7; assay: Antiproliferative activity against human MCF7 cells; type: functional, cell-based
[10] = test system: HeLa; assay: cells; conditions: Homo sapiens, 48 h
Description: Antiproliferative activity against human HeLa cells assessed as inhibition of cell growth incubated for 48 hrs by CellTiter 96 Aqueous One Solution Cell Proliferation Assay

[11] = test system: Caco-2; assay: Antiproliferative activity against human Caco-2 cells assessed as inhibition of cell growth incubated for 48 hrs by CellTiter 96 Aqueous One Solution Cell Proliferation Assay; type: functional, cell-based; conditions: Caco-2, 48 h
[12] = Antiproliferative activity against human LX2 cells assessed as inhibition of cell growth incubated for 48 hrs by CellTiter 96 Aqueous One Solution Cell Proliferation Assay; type: toxicity, cell-based; conditions: LX-2 cells
[13] = test system: Hep 3B2; assay: cells; conditions: Homo sapiens, Hep3B, 48 h
Description: Antiproliferative activity against human Hep3B cells assessed as inhibition of cell growth incubated for 48 hrs by CellTiter 96 Aqueous One Solution Cell Proliferation Assay

[14] = test system: MCF7; assay: cells; conditions: Homo sapiens, MCF7, 48 h
Description: Antiproliferative activity against human MCF7 cells assessed as inhibition of cell growth incubated for 48 hrs by CellTiter 96 Aqueous One Solution Cell Proliferation Assay

[15] = Antiproliferative activity against HEK293T cells assessed as inhibition of cell growth incubated for 48 hrs by CellTiter 96 Aqueous One Solution Cell Proliferation Assay; type: toxicity, cell-based, HEK-293T; conditions: human
[16] = test system: HepG2; assay: cells; conditions: Homo sapiens, HepG2, 48 h
Description: Antiproliferative activity against human HepG2 cells assessed as inhibition of cell growth incubated for 48 hrs by CellTiter 96 Aqueous One Solution Cell Proliferation Assay

[17] = target: T2, Prostaglandin G/H synthase 1 (Ovis aries, UniProt P05979)
T2 sequence (P05979 whole entry): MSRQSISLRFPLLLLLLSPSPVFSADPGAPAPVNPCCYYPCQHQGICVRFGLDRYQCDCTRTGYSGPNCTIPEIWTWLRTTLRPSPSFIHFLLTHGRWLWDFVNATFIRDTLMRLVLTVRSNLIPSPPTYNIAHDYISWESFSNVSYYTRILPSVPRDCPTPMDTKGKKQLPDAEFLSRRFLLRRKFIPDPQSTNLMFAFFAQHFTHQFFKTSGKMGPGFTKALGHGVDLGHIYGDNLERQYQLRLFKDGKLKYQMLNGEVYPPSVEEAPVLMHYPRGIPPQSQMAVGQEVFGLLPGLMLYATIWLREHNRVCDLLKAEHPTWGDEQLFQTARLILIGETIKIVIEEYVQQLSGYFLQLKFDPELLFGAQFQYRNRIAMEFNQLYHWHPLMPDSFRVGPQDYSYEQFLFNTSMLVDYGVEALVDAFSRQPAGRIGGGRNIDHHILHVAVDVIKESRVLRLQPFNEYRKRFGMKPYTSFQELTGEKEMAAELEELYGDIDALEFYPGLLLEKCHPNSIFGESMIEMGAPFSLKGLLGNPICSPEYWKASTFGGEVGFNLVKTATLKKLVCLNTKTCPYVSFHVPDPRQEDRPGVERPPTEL
Description: Inhibition of ovine COX-1 by EIA method

Molecule `COc1cccc(-c2nc(C(=O)Nc3ccc(C(F)(F)F)cc3)cs2)c1` has an IC50 [1] of 30800 nM, an IC50 [2] of 239 nM and an IC50 [3] of 191 nM.

Molecule `COc1ccc(NC(=O)c2c(-c3ccccc3Cl)noc2C)cc1OC` has an IC50 [4] of 24 µg/mL (≈ 64.3 µM) and an IC50 [5] of 15.5 µg/mL (≈ 41.5 µM).

`COc1ccc(-c2nc(C(=O)Nc3cc(OC)c(OC)c(OC)c3)cs2)cc1` gave an IC50 [6] of 17500 nM and an IC50 [7] of 14600 nM.

Work on `Cc1onc(-c2c(F)cccc2Cl)c1C(=O)Nc1ccc(C(C)(C)C)cc1` yielded an IC50 [8] of 2.77 µg/mL (≈ 7.16 µM) and an IC50 [9] of 9.31 µg/mL (≈ 24.1 µM).

With `COc1cccc2c1C(=O)c1c(O)c3c(c(O)c1C2=O)C[C@@](O)(C(=O)CO)C[C@@H]3O[C@H]1C[C@H](N)[C@H](O)[C@H](C)O1` [DOXORUBICIN] the IC50 [10] was < 10 nM, the IC50 [11] was 24 nM and the IC50 at 48 h [12] was 210 nM. For the same molecule, the IC50 [13] was 25 nM, the IC50 [14] was 53 nM and the IC50 at 48 h [15] was 38 nM.

`O=c1[nH]cc(F)c(=O)[nH]1` [FLUOROURACIL] showed an IC50 [10] of 7790 nM, an IC50 [11] of 4750 nM and an IC50 at 48 h [12] of 178 nM. For the same molecule, the IC50 [13] was 5110 nM, the IC50 [14] was 6510 nM and the IC50 at 48 h [15] was 4070 nM. The IC50 [16] was 4070 nM.

`CC(C(=O)O)c1cccc(C(=O)c2ccccc2)c1` (stereo not drawn) [KETOPROFEN] gave an IC50 [17] of 35 nM.

Reference: ChEMBL document CHEMBL5523704, “Exploration of isoxazole analogs: Synthesis, COX inhibition, anticancer screening, 3D multicellular tumor spheroids, and molecular modeling” (Eur J Med Chem, 2024)
